Values quoted from earlier work in patent publication US20100048397A1, “GABA/Pesticidal Combinations” (priority 2008, published 2010).

What was measured:
leek seed = conditions: seed treatment, compared with seed treated with fipronil
[1] = test system: greenhouse-grown cucumber plants; conditions: in vivo
[2] = test system: greenhouse-grown tomato plants; conditions: in vivo

O=[N+]([O-])NC1=NCCN1Cc1ccc(Cl)nc1 [imidacloprid, (E)-1-(6-chloro-3-pyridylmethyl)-N-nitroimidazolidin-2-ylideneamine]
phytotoxicity, germination rate (leek seed): delayed germination rates
phytotoxicity at lowest rate [1]: caused phytotoxicity symptoms
phytotoxicity at lowest rate [2]: caused phytotoxicity symptoms
